Positions of bridges follow the written chain, without caps; N, C: chain ends. Residues, ends and D or L forms follow the SMILES beside them.

The test system of series [1] is Klebsiella pneumoniae CAU202084. The series is described as follows: MIC/MBC, microdilution broth method. The class given is cell-based. The conditions noted are these: Klebsiella pneumoniae CAU202084 (MDR isolate); for MIC: 1 × 10^6 CFU/mL, 18 h at 37 °C, NA = no antimicrobial activity at 1 mg/mL; for MBC: kills 99.9% bacteria, NA = no activity at 1 mg/mL. The protocol:
(§1) The MIC of peptides against bacteria was carried out by the microdilution broth method. The bacterial culture (OD 600 = 0.6) was diluted in 10 mM PBS to 1 × 10^6 CFU/mL. The bacterial suspension (100 μL) was added to 96-well plates, and the same volume of peptides, ampicillin or gentamicin (concentrations ranging from 0.001 to 2 mg/mL) were then added to the same 96-well plates, respectively.

The subject of series [2] is Streptococcus suis CVCC3307. The series can be described thus: MIC/MBC, microdilution broth method. The class given is cell-based. As to conditions: Streptococcus suis CVCC3307; for MIC: 1 × 10^6 CFU/mL, 18 h at 37 °C, NA = no antimicrobial activity at 1 mg/mL; for MBC: kills 99.9% bacteria, NA = no activity at 1 mg/mL. The protocol:
as §1

The test system of series [3] is Salmonella typhimurium ATCC14028. The series can be described thus: MIC/MBC, microdilution broth method. The conditions noted are these: Salmonella typhimurium ATCC14028; for MIC: 1 × 10^6 CFU/mL, 18 h at 37 °C, NA = no antimicrobial activity at 1 mg/mL; for MBC: kills 99.9% bacteria, NA = no activity at 1 mg/mL. The class given is cell-based. As to the method: as §1
Background: In broth dilution the organism is exposed to a series of concentrations in liquid medium.

Series [4] concerns Staphylococcus haemolyticus CAU202078. The series can be described thus: MIC/MBC, microdilution broth method. The class given is cell-based. The conditions noted are these: Staphylococcus haemolyticus CAU202078 (MDR isolate); for MIC: 1 × 10^6 CFU/mL, 18 h at 37 °C, NA = no antimicrobial activity at 1 mg/mL; for MBC: kills 99.9% bacteria, NA = no activity at 1 mg/mL. As to the method:
as §1

The test system of series [5] is Proteus vulgaris CVCC1971. The series is described as follows: MIC/MBC, microdilution broth method. The class given is cell-based. The conditions noted are these: Proteus vulgaris CVCC1971; for MIC: 1 × 10^6 CFU/mL, 18 h at 37 °C, NA = no antimicrobial activity at 1 mg/mL; for MBC: kills 99.9% bacteria, NA = no activity at 1 mg/mL. As to the method: as §1
In the next series the test system is MRSA ATCC33591. The series can be described thus: MIC/MBC, microdilution broth method. The class given is cell-based, S. aureus. The conditions noted are these: for MIC: MRSA (methicillin-resistant S. aureus) ATCC33591, 1 × 10^6 CFU/mL, 18 h at 37 °C, NA = no antimicrobial activity at 1 mg/mL; for MBC: MRSA ATCC33591, kills 99.9% bacteria, NA = no activity at 1 mg/mL. As to the method: as §1

The nature of series [6]: Retention time of peptide in HPLC (hydrophobicity). The class given is physicochemical. As to conditions: used as measure of hydrophobicity (order Z-d14CR > Z-d14CF > Z-d13 > Z-d14CFR > Z-d14C); column and gradient not given.
Series [7] deals with Escherichia coli CVCC1450. The series can be described thus: MIC/MBC, microdilution broth method. As to conditions: Escherichia coli CVCC1450. The class given is cell-based. As to the method:
as §1

The test system of series [8] is Staphylococcus aureus ATCC29213. The series is described as follows: MIC/MBC, microdilution broth method. The conditions noted are these: Staphylococcus aureus ATCC29213. The class given is cell-based. As to the method: as §1
For series [9], the system named is Escherichia coli CAU 201919. The series can be described thus: MIC/MBC, microdilution broth method. The conditions noted are these: Escherichia coli CAU 201919 (MDR isolate). The class given is cell-based. The protocol: as §1
Setting [10] is: 1 × 10^6 CFU/mL, 18 h at 37 °C, NA = no antimicrobial activity at 1 mg/mL.
Setting [11] is: kills 99.9% bacteria, NA = no activity at 1 mg/mL.

For the molecule `CC(C)[C@@H]1NC(=O)[C@@H]2CSSC[C@H](NC(=O)[C@H](CCCNC(=N)N)NC(=O)[C@@H](NC(=O)CNC(=O)[C@@H](N)CCCNC(=N)N)CSSC[C@@H](C(=O)N[C@@H](CCCNC(=N)N)C(N)=O)NC1=O)C(=O)N[C@@H](CC(N)=O)C(=O)N[C@@H](CO)C(=O)N[C@@H](CCCCN)C(=O)N[C@@H](CO)C(=O)N[C@@H](C(C)C)C(=O)N2` [Z-d14CR] (H-RGCRCNSKSVCVCR-NH2; disulfide 3-13, 5-11; N-terminus assumed), the MIC result (in [1]; in series [2]; in series [3]; in series [4]; in series [5]; in the series with MRSA ATCC33591) was “NA (NA) (No antimicrobial activity at 1 mg/mL)” each time. The MBC entry (in [1]; in [2]; in series [3]; in series [4]; in [5]; in the series on MRSA ATCC33591) was “NA (NA) (No antimicrobial activity at 1 mg/mL)” each time. In addition, the “RT, retention time of peptide in HPLC” value in series [6] is listed as 10.159 min.

Regarding `CC(C)[C@@H]1NC(=O)[C@@H]2CSSC[C@H](NC(=O)[C@H](Cc3ccc(O)cc3)NC(=O)[C@@H](NC(=O)CNC(=O)[C@@H](N)CCCNC(=N)N)CSSC[C@@H](C(=O)N[C@@H](CCCNC(=N)N)C(N)=O)NC1=O)C(=O)N[C@@H](CC(N)=O)C(=O)N[C@@H](CO)C(=O)N[C@@H](CCCCN)C(=O)N[C@@H](CO)C(=O)N[C@@H](C(C)C)C(=O)N2` [Z-d14C] (H-RGCYCNSKSVCVCR-NH2; disulfide 3-13, 5-11; N-terminus assumed), the MIC result in series [1], in series [2], in series [7] (setting [10]), in series [8] (setting [10]), in series [3] and in series [4] was “NA (NA) (No antimicrobial activity at 1 mg/mL)” each time. The MIC entry (in series [9] (setting [10]); in [5]; in the series on MRSA ATCC33591) was “NA (NA) (No antimicrobial activity at 1 mg/mL)” each time. The MBC result was “NA (NA) (No antimicrobial activity at 1 mg/mL)” in [1]; “NA (NA) (No antimicrobial activity at 1 mg/mL)” in series [2]; “NA (NA) (No antimicrobial activity at 1 mg/mL)” in series [7] (minimum concentration which kills 99.9% bacteria, NA = no activity at 1 mg/mL); “NA (NA) (No antimicrobial activity at 1 mg/mL)” in series [8] (setting [11]); “NA (NA) (No antimicrobial activity at 1 mg/mL)” in series [3]; “NA (NA) (No antimicrobial activity at 1 mg/mL)” in [4]. Further, the MBC result (in series [9] (setting [11]); in series [5]; against MRSA ATCC33591) was “NA (NA) (No antimicrobial activity at 1 mg/mL)” throughout. In addition, the “RT, retention time of peptide in HPLC” value in [6] stood at 7.809 min.

For the origin of these results see PMC9105976, “A Novel β-Hairpin Peptide Z-d14CFR Enhances Multidrug-Resistant Bacterial Clearance in a Murine Model of Mastitis” (International Journal of Molecular Sciences, 2022).
